From the NIST ThermoML archive (doi:10.1021/je060271a)

Conditions: 283.15 K, Liquid, Vibrating tube method

CCCCCC(=O)OCC(COC(=O)CCCCC)(COC(=O)CCCCC)COC(=O)CCCCC [pentaerythritol tetrahexanoate]
Conditions	mass density [kg/m3]
4636.7 kPa	1006.7
4649 kPa	1006.8
4658.7 kPa	1006.9
4668 kPa	1006.9
4676.2 kPa	1006.8
4685.2 kPa	1006.8
4692.6 kPa	1006.9
4700 kPa	1006.9
4708.4 kPa	1006.8
4714.4 kPa	1006.8
4721.3 kPa	1006.9
4726.5 kPa	1006.8
4731.5 kPa	1006.9
4736.6 kPa	1006.9
4742.6 kPa	1006.9
4748 kPa	1006.9
4753 kPa	1006.9
4759.1 kPa	1006.9
4776 kPa	1006.9
4786.1 kPa	1007
4792.3 kPa	1006.9
4802.7 kPa	1006.8
4808.2 kPa	1006.8
4814.3 kPa	1006.9
4819.8 kPa	1006.9
4825.4 kPa	1007
4830.4 kPa	1007
4835.6 kPa	1007
4841.6 kPa	1006.9
4847.2 kPa	1007
4852.3 kPa	1006.9
4858.9 kPa	1007
4864.1 kPa	1007
4869.3 kPa	1007
4874.5 kPa	1007
4881.1 kPa	1007
4886.6 kPa	1006.9
4892 kPa	1006.9
4898.2 kPa	1006.9
4903.6 kPa	1007
4909.8 kPa	1007
4915.2 kPa	1007
4920.5 kPa	1006.9
4926.4 kPa	1007.1
4932 kPa	1006.8
4938.5 kPa	1006.9
4943.9 kPa	1007
4949.3 kPa	1007
4955.8 kPa	1007
4961.4 kPa	1007
4966.9 kPa	1007
4972.8 kPa	1007
4978 kPa	1007
4984.9 kPa	1007
4990.4 kPa	1007.2
4996.2 kPa	1007
5002.7 kPa	1007.2
5008.1 kPa	1007
5013.8 kPa	1007.1
5020.4 kPa	1007
5026.1 kPa	1007
5031.5 kPa	1007.1
5037.2 kPa	1007
5044.1 kPa	1007.2
5049.5 kPa	1007.1
5055.5 kPa	1007
5060.9 kPa	1007.1
5067.8 kPa	1007
5073.5 kPa	1007.2
5079.2 kPa	1007.1
5085.4 kPa	1007.1
5091.5 kPa	1007.1
5098.2 kPa	1007
5103.9 kPa	1007.1
5109.8 kPa	1007
5115.5 kPa	1007.1
5122.3 kPa	1007
5128.3 kPa	1007.1
5133.9 kPa	1007.2
5138.7 kPa	1007.1
5147 kPa	1007.2
5152.5 kPa	1007
5158.3 kPa	1007.2
5164.7 kPa	1007.2
5169.6 kPa	1007.1
5176.9 kPa	1007
5183.3 kPa	1007.2
5189 kPa	1007.1
5194.8 kPa	1007.2
5201.6 kPa	1007.1
5207.6 kPa	1007
5212.7 kPa	1007.2
5218.4 kPa	1007.2
5227 kPa	1007.3
5232.6 kPa	1007.1
5237.2 kPa	1007.1
5244.5 kPa	1007.2
5250.5 kPa	1007.1
5256.8 kPa	1007.2
5263.7 kPa	1007.2
5270.8 kPa	1007.3
5276.8 kPa	1007.2
5282.7 kPa	1007.3
5290.2 kPa	1007.4
5296 kPa	1007.1
5302.1 kPa	1007.3
5453.3 kPa	1007.3
5459.7 kPa	1007.3
5467.3 kPa	1007.4
5473.7 kPa	1007.4
5479.9 kPa	1007.2
5486.3 kPa	1007.3
5494.3 kPa	1007.3
5501 kPa	1007.3
5507.2 kPa	1007.4
5514 kPa	1007.4
5528.5 kPa	1007.4
5534.4 kPa	1007.4
5540.6 kPa	1007.4
5548.4 kPa	1007.4
5555 kPa	1007.4
5561.9 kPa	1007.3
5569.7 kPa	1007.4
5575.9 kPa	1007.4
5582.8 kPa	1007.5
5589.4 kPa	1007.4
5597.4 kPa	1007.3
5604.1 kPa	1007.5
5610.3 kPa	1007.4
5618.3 kPa	1007.4
5625 kPa	1007.4
5631.6 kPa	1007.4
5639.6 kPa	1007.4
5646.1 kPa	1007.5
5652.9 kPa	1007.4
5661 kPa	1007.5
5667.7 kPa	1007.5
5674.8 kPa	1007.3
5681.2 kPa	1007.4
5687.9 kPa	1007.4
5696.2 kPa	1007.5
5703 kPa	1007.4
5709.5 kPa	1007.5
5716.6 kPa	1007.5
5724.4 kPa	1007.5
